Source: US10544146B2, “Bicyclic compounds and their use as antibacterial agents and β-lactamase inhibitors” (priority 2011, dated 2020)

How the values were obtained:
Assay in all cases: MIC, antibacterial and synergistic activity
Assay type in all cases: cell-based
[1] = test system: P. aerug JMI 2686; conditions: P. aerug JMI 2686, KPC-2 (Cpase); substance alone
[2] = test system: E. coli JMI 10767; conditions: Escherichia coli, JMI10767; E. coli JMI 10767, Wt; substance alone
Experimental: (§1) In the Tables 10-12, compounds of the present invention were tested in combination with various antibiotics against metallo β-lactamase producing bacteria.

[3] = test system: K. pneumo JMI 2697; conditions: K. pneumo JMI 2697, IMP-4 (Cpase); substance alone
Experimental: as §1

[4] = test system: E. coli ATCC 25922; conditions: Escherichia coli, ATCC25922, E. coli ATCC 25922, enzyme Wt; substance alone
Experimental: as §1

[5] = test system: K. pneumo JMI 2699; conditions: K. pneumo JMI 2699, VIM-1, CTX-M3; substance alone
Experimental: as §1

[6] = test system: K. pneumo JMI 2693; conditions: K. pneumo JMI 2693, NDM-1 (Cpase); substance alone
Experimental: as §1

[7] = test system: E. coli JMI 2671; conditions: Escherichia coli, JMI2671, E. coli JMI 2671, VIM-19 (Cpase); substance alone
Experimental: as §1

[8] = test system: E. coli JMI 2692; conditions: Escherichia coli, JMI2692; E. coli JMI 2692, NDM-1, TEM-1, CTX-M-15; substance alone
Experimental: as §1

[9] = test system: E. cloacae JMI 36; conditions: Enterobacter cloacae, JMI36; E. cloacae JMI 36, P99; substance alone
Experimental: as §1

[10] = test system: A. baumanii JMI 2659; conditions: Acinetobacter baumannii, JMI2659; A. baumanii JMI 2659, Ges-14 (Cpase); substance alone
Experimental: as §1

[11] = test system: P. aerug JMI 149; conditions: P. aerug JMI 149, Bla+++D+; substance alone
Experimental: as §1

[12] = test system: K. pneumo JMI 4106; conditions: K. pneumo JMI 4106, KPC-3, TEM-1, SHV-12, SHV-141; substance alone
[13] = test system: K. pneumo JMI 4088; conditions: K. pneumo JMI 4088, KPC-3 (Cpase); substance alone
[14] = test system: E. coli JMI 4080; conditions: Escherichia coli, JMI4080, E. coli JMI 4080, Tem-10; substance alone
[15] = test system: E. coli JMI 10768; conditions: Escherichia coli, JMI10768; E. coli JMI 10768, CTX-M15 (Weak ESBL); substance alone
[16] = test system: E. coli JMI 10770; conditions: Escherichia coli, JMI10770; E. coli JMI 10770, CTX-M15 (Hyper ESBL); substance alone
[17] = test system: K. pneumo JMI 2681; conditions: K. pneumo JMI 2681, Oxa-48 (Cpase); substance alone
[18] = test system: E. coli JMI 11103; conditions: Escherichia coli, JMI11103, E. coli JMI 11103, CTX-M15 (Intermediate ESBL); substance alone
[19] = test system: K. pneumo JMI 2674; conditions: K. pneumo JMI 2674, CTX-M15 (ESBL); substance alone
[20] = test system: K. pneumo JMI 2673; conditions: K. pneumo JMI 2673, CTX-M14 (ESBL); substance alone
[21] = test system: E. coli JMI 4103; conditions: Escherichia coli, JMI4103; E. coli JMI 4103, KPC-2, Tem-1, CMY-Type; substance alone
[22] = test system: K. pneumo JMI 4109; conditions: K. pneumo JMI 4109, SHV-1, SHV-12; substance alone
[23] = test system: E. coli JMI 2665; conditions: Escherichia coli, JMI2665, read-out: MIC alone

SMILES: O=C(NNC(=O)[C@H]1CC[C@H]2CN1C(=O)N2OS(=O)(=O)O)C1CC1 (stereo in doubt) [Ex. 47, (2R,5S)-N′-(cyclopropylcarbonyl)-7-oxo-6-(sulfooxy)-1,6-diazabicyclo[3.2.1]octane-2-carbohydrazide]
- MIC [1]: > 16 µg/mL
- MIC [2]: 8 µg/mL
- MIC [3]: > 16 µg/mL
- MIC [4]: > 16 µg/mL
- MIC [5]: 16 µg/mL
- MIC [6]: > 16 µg/mL
- MIC [7]: 8 µg/mL
- MIC [8]: 8 µg/mL
- MIC [9]: > 16 µg/mL
- MIC [10]: > 16 µg/mL
- MIC [11]: > 16 µg/mL
- MIC [12]: 16 µg/mL
- MIC [13]: > 16 µg/mL
- MIC [14]: 4 µg/mL
- MIC [15]: 16 µg/mL
- MIC [16]: 8 µg/mL
- MIC [17]: > 16 µg/mL
- MIC [18]: 16 µg/mL
- MIC [19]: > 16 µg/mL
- MIC [20]: > 16 µg/mL
- MIC [21]: 2 µg/mL
- MIC [22]: 2 µg/mL
- MIC [23]: 2 µg/mL
